By MIC is commonly meant the lowest concentration that inhibits growth of the organism. One may read the inhibition as how much of the control response was suppressed. Low values mean little suppression, high ones strong suppression. What is called IC50 is the concentration that inhibits the measured activity by half.

The results in this text go back to patent US10822315B2, “5-benzylidene-4-oxazolidinones” (NORTH CAROLINA STATE UNIVERSITY, priority 2016, dated 2020).

For experiment [1], the system named is MRSA Strain 43300. The experiment is described as follows: Biofilm dispersion assay (crystal violet). It is filed as cell-based, Staphylococcus aureus. The note with it: for % Biofilm Dispersion (5/40 μM): MRSA strain 43300. On the procedure:
(§1) General Information. Methicillin-resistant Staphylococcus aureus (MRSA) strains were obtained from the Laboratory of Professor Christian Melander (NCSU) ATCC (33591, BAA 44, BAA 1685, BAA 1770, BAA 43 300) and colonies were grown on solid media as instructed. Mueller-Hinton broth (MHB, 211443-BD), tryptic soy broth (TSB, Remel: R455052) and D-glucose (CAS: 492-62-6) were purchased from Fisher Scientific. Tryptic soy agar (TSA, cat. #22091) and Linezolid (cat. # P70014) were purchased from Sigma-Aldrich. Bacteria for biofilm inhibition and dispersion assays were cultured overnight in TSBG (tryptic soy broth with 0.5% glucose supplement). All assays were run in duplicate and repeated at least two separate times for MIC assays and at least four separate times for biofilm inhibition and dispersion assays. All compounds were dissolved molecular biology grade DMSO as 100 mM stock solutions and further diluted to 10 and 1 mM stock solutions as needed. Optical densities were measured using a Thermo Scientific Genesys 20 spectrophotometer. Data for biofilm inhibition and dispersion assays was collected using a BioTek ELx808 Microplate Reader. All graphs were generated and analyzed using GraphPad Prism 7.
(§2) Biofilm Dispersion Assay. Studies were performed using the standard method described in J. J. Richards, T. E. Ballard and C. Melander, Org Biomol Chem, 2008, 6, 1356-1363. Briefly, dispersion assays were performed by taking an overnight culture of bacterial strain and subculturing it at an OD600 of 0.01 into the necessary growth liquid medium. The resulting bacterial suspension was aliquoted (100 μL) into the wells of a 96-well PVC microtiter plate. Plates were then wrapped in GLAD Press n' Seal followed by an incubation under stationary conditions at an ambient temperature. After 24 hours, the media was discarded from the wells and the plates were washed thoroughly with tap water. Predetermined concentrations of the test compound were then made in the same medium used to initially grow the biofilms and then aliquoted (100 μL) into the wells of the 96-well PVC microtiter plate with the established biofilms. Plates were then wrapped in GLAD Press n'Seal and incubated under stationary conditions at 37° C. After 24 hours, the media was discarded from the wells and the plates were washed thoroughly with tap water. Plates were then stained with 100 μL of 0.1% solution of crystal violet (CV) and then incubated at room temperature for 30 minutes. Plates were then washed with tap water again and the remaining stain was solubilized with 200 μL of 95% ethanol. Biofilm dispersion was quantitated by measuring the OD540 for each well by transferring 125 μL of the solubilized CV stain into a polystyrene microtiter dish for analysis. Biofilm inhibition was quantified by measuring the OD540 of each well and calculated as a percentage of the control (no compound), a negative control lane wherein no biofilm was formed served as a background and was subtracted out.
(§3) Percent dispersion was then plotted against concentration in Prism 7. Each of the four experiments were plotted separately and analyzed by a normalized nonlinear regression. The IC50 values reported represent an arithmetic mean of the four IC50 values. Biofilm data represent four separate experiments, with each experiment performed in duplicate (average of 8 data points for each concentration tested, unless otherwise noted)

For experiment [2], the system named is MRSA Strain 1770. The experiment is described as follows: Biofilm dispersion assay (crystal violet). The format is cell-based, Staphylococcus aureus. As to the method: as §1, §2, §3
Experiment [3] relates to MRSA Strain 1685. Nature of the experiment: Biofilm dispersion assay (crystal violet). It is filed as cell-based, Staphylococcus aureus. As to the method: as §1, §2, §3
In experiment [4] the test system is MRSA ATCC BAA-44. Nature of the experiment: Broth microdilution MIC determination. It is filed as cell-based, Staphylococcus aureus. To be noted: for MIC: Staphylococcus aureus.
In another experiment the test system is planktonic bacteria. The experiment is described as follows: Growth curve analysis. It is filed as cell-based.
For experiment [5], the system named is MRSA ATCC BAA-44. Nature of the experiment: Biofilm dispersion assay (crystal violet, pre-formed biofilm). The note with it: Staphylococcus aureus, Table 2. It is filed as cell-based.
In experiment [6] the test system is MRSA ATCC BAA-44. Described as above. It is filed as cell-based, Staphylococcus aureus. To be noted: for % dispersion of pre-formed biofilm: 40 μM; for IC50: MRSA ATCC BAA-44; for % dispersion of pre-formed biofilm at 5 µM: MRSA ATCC BAA 44. As to the method: as §1, §2, §3
The next experiment deals with MRSA ATCC 33591. Nature of the experiment: Broth microdilution MIC determination. To be noted: Staphylococcus aureus, Table 1, read-out: Antimicrobial Activity MIC. It is filed as cell-based. On the procedure: as §1
(§4) Broth microdilution protocol for minimum inhibition concentration (MIC) determination. Studies were performed using the standard method prescribed by the Clinical and Laboratory Standards Institute (CLSI) M07-A8, Vol. 29 (2), which is hereby incorporated herein by reference. Briefly, fresh Mueller-Hinton broth (MHB) ˜3 ml, was inoculated (5×10^5 CFU mL^−1) with MRSA (ATCC 33591) methicillin-resistant Staphylococcus aureus. The resulting bacterial suspension was aliquoted (1 mL) into culture tubes and test compound (10 mM DMSO stock solution) was added to reach the final concentration of the interest. Bacteria not treated with the antimicrobial compound served as the control. Rows 2-12 of a 96-well microtiter plate were filled with remaining bacterial subcultures. The samples containing test compound were aliquoted (200 μL) into the first row wells of the microtiter plate (2 wells per compound). Row 1 wells were mixed 6-8 times and 100 μL was transferred down to row 2. Row 2 wells were mixed 6-8 times, followed by a 100 μL transfer from row 2 down to row 3. The rest of the rows of the plate were serially diluted in similar fashion. The plate was covered with sealing tape for 96-well plates (ThermoFisher) and incubated under stationary conditions at 37° C. A duplicate of the plate was prepared.
In general terms: In broth dilution the organism is exposed to a series of concentrations in liquid medium.

Experiment [7] deals with MRSA Strain 43300. Nature of the experiment: Broth microdilution MIC determination. The format is cell-based. The note with it: Staphylococcus aureus. On the procedure:
as §1, §4

For experiment [8], the system named is MRSA Strain 1770. The experiment is described as follows: Broth microdilution MIC determination. It is filed as cell-based. To be noted: Staphylococcus aureus. On the procedure:
as §1, §4

Experiment [9] deals with MRSA Strain 1685. The experiment is described as follows: Broth microdilution MIC determination. The note with it: Staphylococcus aureus. It is filed as cell-based. On the procedure: as §1, §4
Setting [10] is: MRSA ATCC BAA 44, Table 2, read-out: MIC.
[11] abbreviates: MRSA ATCC BAA-44, Table 1, read-out: Antimicrobial Activity MIC.

Converted amounts (≈) assume the structure as drawn. Read-outs that look alike come from different tables or passages of the source.

With `CCCCC(Cl)(Cl)C1NC(=O)/C(=C/c2ccc(C(F)(F)F)cc2)O1` (stereo not shown) [Compound 1, (Z)-2-(1,1-dichloropentyl)-5-(4-(trifluoromethyl)benzylidene)oxazolidin-4-one], the “% Biofilm Dispersion (5/40 μM)” value with MRSA Strain 43300 [1] (5 μM) came to 23%; with MRSA Strain 43300 [1] (40 μM) it was 63%; in the experiment on MRSA Strain 1770 [2] (5 μM) it was 52%; with MRSA Strain 1770 [2] (40 μM) it was 46%; in the experiment on MRSA Strain 1685 [3] (5 μM), 24%; in the experiment on MRSA Strain 1685 [3] (40 μM), 61%. The MIC with MRSA ATCC BAA-44 [4] (MRSA ATCC BAA-44, read-out: MIC) was found to be 12000 µg/mL (≈ 31400 µM); in the experiment on MRSA ATCC BAA-44 [4] (setting [10]), 12 µg/mL (≈ 31.4 µM); with MRSA ATCC BAA-44 [4] (setting [11]), 12 µg/mL (≈ 31.4 µM); in the experiment with MRSA ATCC 33591 it was 12 µg/mL (≈ 31.4 µM); in the experiment on MRSA Strain 43300 [7], 8 µg/mL (≈ 20.9 µM); in the experiment with MRSA Strain 1770 [8], 16 µg/mL (≈ 41.9 µM). The same molecule had an MIC against MRSA Strain 1685 [9] of 16 µg/mL (≈ 41.9 µM). The “growth curve versus untreated control (in words)” value with planktonic bacteria (1 μM) and in the experiment with planktonic bacteria (5 μM) was “substantial inhibition of growth in the first 8 hours” each time. In the experiment on MRSA ATCC BAA-44 [5], this molecule gave an inhibition at 40 µM of 87%. In addition, the “% dispersion of pre-formed biofilm” value in the experiment on MRSA ATCC BAA-44 [6] worked out at 87%. Further, the concentration for half-maximal inhibition (IC50) in the experiment on MRSA ATCC BAA-44 [6] was determined as 5.7 µM; in the experiment with MRSA ATCC BAA-44 [6] (Staphylococcus aureus) it was 4.7 µM. In addition, the % dispersion of pre-formed biofilm at 5 µM in the experiment on MRSA ATCC BAA-44 [6] (Staphylococcus aureus) turned out to be 59%.
As to `O=C1NC(C(Cl)(Cl)Cc2ccccc2)O/C1=C\c1ccc(C(F)(F)F)cc1` (stereo not shown) [Compound 2, (Z)-2-(1,1-dichloro-2-phenylethyl)-5-(4-(trifluoromethyl)benzylidene)oxazolidin-4-one], the entries for the “% Biofilm Dispersion (5/40 μM)” value with MRSA Strain 43300 [1] (5 μM), in the experiment with MRSA Strain 1770 [2] (5 μM) and with MRSA Strain 1685 [3] (5 μM) were 37/− %, 29/− % and 15/− %, respectively. For the same molecule, in the experiment on MRSA Strain 43300 [1] (MRSA strain 43 300), the “biofilm dispersion activity (in words)” value is reported as “no dose-dependent dispersion activity”. In addition, the MIC in the experiment with MRSA ATCC BAA-44 [4] (setting [10]) worked out at 6 µg/mL (≈ 14.4 µM); with MRSA ATCC BAA-44 [4] (setting [11]), 6 µg/mL (≈ 14.4 µM); with MRSA ATCC 33591 it was 6 µg/mL (≈ 14.4 µM); in the experiment on MRSA Strain 43300 [7], 8 µg/mL (≈ 19.2 µM); against MRSA Strain 1770 [8], 8 µg/mL (≈ 19.2 µM); against MRSA Strain 1685 [9], 8 µg/mL (≈ 19.2 µM). Moreover, the “fold enhancement of the MIC” value in the experiment on MRSA ATCC BAA-44 [4] (benzyl side chain (2) versus n-butyl side chain (1)) came to 2 fold. Besides, the “growth curve versus untreated control (in words)” value in the experiment with planktonic bacteria (1 μM) was “modest deviation from the untreated control”; with planktonic bacteria (5 μM), “moderate growth inhibition in the first 8 hours”. The molecule also displayed an inhibition at 40 µM in the experiment with MRSA ATCC BAA-44 [5] of 69%. Further, the “% dispersion of pre-formed biofilm” value in the experiment on MRSA ATCC BAA-44 [6] came to 69%. This molecule also gave a % dispersion of pre-formed biofilm at 5 µM in the experiment on MRSA ATCC BAA-44 [6] (Staphylococcus aureus) of 57%. In the experiment with MRSA ATCC BAA-44 [6] (Staphylococcus aureus), the IC50 amounted to 4.3 µM.
